In US20160227776A1, “COMPOSITION CONTAINING ATTRACTANT OF NOXIOUS ARTHROPOD COMPRISING PLANT-DERIVED COMPONENT AND ANALOGUE OF SAME” (KYOYU AGRI CO., LTD., priority 2013, published 2016):

Tests used:
Format in all cases: in vivo
[1] = test system: Frankliniella occidentalis; assay: Test Example 1: water trap attraction test, single compounds; parameters: key: (captured treated − captured untreated)×100/total released per cage; settings: single compound, 30 adult females per cage, 24 hours
Description: (§1) Hexane solutions were prepared respectively containing single compounds selected from among p-anisaldehyde, benzaldehyde, ethyl nicotinate, geraniol, linalool, nerol, citronellol, methyl anthranilate, methyl benzoate, o-aminoacetophenone, o-anisidine, methyl m-aminobenzoate, methyl o-toluate and α-hexylcinnamaldehyde. Each single compound was prepared at five concentration levels consisting of 0.01 μg, 0.1 μg, 1 μg, 10 μg and 100 μg. After impregnating pieces of filter paper with these solutions, the filter paper was affixed on a plastic vial cap using adhesive tape and set up in a water trap containing a surfactant. After releasing 30 adult female Frankliniella occidentalis into an acrylic cage, the water trap containing the above-mentioned attractants was set up in the cage. 24 hours later, the number of Frankliniella occidentalis captured in the water trap was counted and the attraction rate was calculated using Equation 1.
(§2) Attraction rate=(No. of captured individuals in treatment−no. of captured individuals in untreatment)*100/(total no. released per cage) (1)

[2] = test system: Frankliniella occidentalis; assay: Test Example 2: water trap attraction test, mixtures of two compounds; parameters: key: % of released insects: (treated catch − untreated catch)×100/total released; settings: single compound for comparison, 24 hours
Description: as §1, with “Mixed hexane” for “Hexane”, “two types of” for “single”, “Each single compound was prepared at five concentration levels consisting of 0.01 μg, 0.1 μg, 1 μg, 10 μg and 100 μg.” left out, “the mixed solution of the two types of compounds,” for “these solutions,”, “above-mentioned mixed” for “above-mentioned”, “1. In addition, hexane solutions were also prepared containing each of the single compounds at their respective prescribed concentrations for the sake of comparison, and those solutions were tested in the same manner.” for “1.”
as §2
(§3) In general, a synergistic attracting effect expected when mixing two given types of attractive compounds and using for treatment is determined from Colby's equation indicated with the following Equation 2: […]
(§4) X: attraction rate when treated with attractive compound A;
(§5) Y: attraction rate when treated with attractive compound B; and
(§6) E: attraction rate expected when treating by mixing attractive compound A and attractive compound B (expected attraction rate value).

[3] = test system: Frankliniella occidentalis; assay: Test Example 3: water trap attraction test, mixtures of three compounds; parameters: scale not given here; settings: single compound for comparison, 24 hours
Description: Mixed hexane solutions were prepared containing three types of compounds selected from among p-anisaldehyde, benzaldehyde, ethyl nicotinate, geraniol, linalool, nerol, citronellol, methyl anthranilate, methyl benzoate, o-aminoacetophenone, o-anisidine, methyl m-aminobenzoate, methyl o-toluate and α-hexylcinnamaldehyde. […] After impregnating pieces of filter paper with the mixed solution of the three types of compounds, the filter paper was affixed on a plastic vial cap using adhesive tape and set up in a pan trap containing a surfactant. After releasing 30 adult female Frankliniella occidentalis into an acrylic cage, the water trap containing the above-mentioned mixed attractants was set up in the cage. 24 hours later, the number of Frankliniella occidentalis captured in the water trap was counted and the attraction rate was calculated using Equation 1. In addition, hexane solutions were also prepared containing each of the single agents at their respective prescribed concentrations for the sake of comparison, and those solutions were tested in the same manner.
In general, a synergistic attracting effect expected when mixing three given types of attractive compounds and using for treatment is determined from Colby's equation indicated with the following Equation 3: […]
as §4
(§7) Y: attraction rate when treated with attractive compound B;
Z: attraction rate when treated with attractive compound C; and
E: attraction rate expected when treating by mixing attractive compound A, attractive compound B and attractive compound C (expected attraction rate value).

Tetranychus urticae = assay: Test Example 4: plastic tube filter paper contact test, mixtures of two compounds; parameters: key: (treated − untreated contacts) ×100 / repetitions, %; settings: weight of each compound 1 μg; contact with filter paper within 10 minutes
Description: Mixed hexane solutions were prepared respectively containing two types of compounds selected from among p-anisaldehyde, benzaldehyde, ethyl nicotinate, geraniol, linalool, nerol, citronellol, methyl anthranilate, methyl benzoate, o-aminoacetophenone, o-anisidine, methyl m-aminobenzoate, methyl o-toluate and α-hexylcinnamaldehyde. The weight of each compound was adjusted to 1 μg. After impregnating pieces of filter paper (3 mm^2) with the mixed solution of the two types of compounds, the filter paper was set up at the head of a plastic tube (length of 9 cm, 5 mm^2 in diameters). An adult Tetranychus urticae was released into the end of plastic tube. Among 10 minutes, the number of T. urticae contacted the filter paper was counted and the attraction rate was calculated using Equation 1. In addition, hexane solutions were also prepared containing each of the single compounds at their respective prescribed concentrations for the sake of comparison, and those solutions were tested in the same manner.
Attraction rate=(No. of contacted individuals in treatment−no. of contacted individuals in untreatment)*100/(repetition) (1)
as §3, §4, §7, §6

Drosophila melanogaster = assay: Test Example 5: water trap attraction test, mixtures of two compounds; parameters: key: % = (captured treated − captured untreated)×100/total released; settings: weight of each compound 100 μg; 20 adults per cage; 24 hours
Description: Mixed hexane solutions were prepared respectively containing two types of compounds selected from among p-anisaldehyde, benzaldehyde, ethyl nicotinate, geraniol, linalool, nerol, citronellol, methyl anthranilate, methyl benzoate, o-aminoacetophenone, o-anisidine, methyl m-aminobenzoate, methyl o-toluate and α-hexylcinnamaldehyde. The weight of each compound was adjusted to 100 μg. After impregnating pieces of filter paper with the mixed solution of the two types of compounds, the filter paper was affixed on a plastic vial cap using adhesive tape and set up in a water trap containing a surfactant. After releasing 20 adult Drosophila melanogaster into an acrylic cage, the water trap containing the above-mentioned mixed attractants was set up in the cage. 24 hours later, the number of D. melanogaster captured in the water trap was counted and the attraction rate was calculated using Equation 1. In addition, hexane solutions were also prepared containing each of the single compounds at their respective prescribed concentrations for the sake of comparison, and those solutions were tested in the same manner.
as §2, §3, §4, §5, §6

Thrips tabaci = assay: Test Example 6: yellow sticky trap attraction test, mixtures of two compounds; parameters: key: % = (captured treated − captured untreated)×100/total released per cup; settings: weight of each compound 1 μg; 10 adults per cup; 24 hours
Description: Mixed hexane solutions were prepared respectively containing two types of compounds selected from among p-anisaldehyde, benzaldehyde, ethyl nicotinate, geraniol, linalool, nerol, citronellol, methyl anthranilate, methyl benzoate, o-aminoacetophenone, o-anisidine, methyl m-aminobenzoate, methyl o-toluate and α-hexylcinnamaldehyde. The weight of each compound was adjusted to 1 μg. After impregnating pieces of filter paper (3 mm^2) with the mixed solution of the two types of compounds, the filter paper was affixed on a yellow sticky trap (1 cm^2). After releasing 10 adult Thrips tabaci into a plastic cup (150 ml), the yellow sticky trap containing the above-mentioned mixed attractants was set up at the side of the plastic cup. 24 hours later, the number of T. tabaci captured in the yellow sticky trap was counted and the attraction rate was calculated using Equation 1. In addition, hexane solutions were also prepared containing each of the single compounds at their respective prescribed concentrations for the sake of comparison, and those solutions were tested in the same manner.
Attraction rate=(No. of captured individuals in treatment−no. of captured individuals in untreatment)*100/(total no. released per cup) (1)
as §3, §4, §7, §6

SMILES	Attraction Rate ([1]; Amount 0.01 μg)	Attraction Rate ([1]; Amount 0.1 μg)	Attraction Rate ([1]; Amount 1 μg)	Attraction Rate ([1]; Amount 10 μg)	Attraction Rate ([1]; Amount 100 μg)	Attraction Rate ([2]; 1 μg)	Attraction Rate ([3]; 1 μg)	Attraction Rate (Tetranychus urticae)	Attraction Rate (Drosophila melanogaster)	Attraction Rate ([2]; 100 μg)	Attraction Rate ([3]; 100 μg)	Attraction Rate (Thrips tabaci)	Attraction Rate ([2]; 10 μg)	Attraction Rate ([3]; 10 μg)
O=Cc1ccccc1 [Benzaldehyde, benzaldehyde]	23	33	36	30	27	36	36	32	3	–	–	–	–	–
CC(C)=CCCC(C)CCO (centres unmarked) [Citronellol, citronellol]	7	20	20	20	23	–	–	–	3	23	23	–	–	–
CCOC(=O)c1cccnc1 [Ethyl nicotinate, ethyl nicotinate]	13	27	30	36	43	–	–	15	3	43	43	10	–	–
CC(C)=CCC/C(C)=C/CO [Geraniol, geraniol]	10	17	30	33	27	–	–	–	23	–	–	0	33	33
C=CC(C)(O)CCC=C(C)C (centres unmarked) [Linalool, linalool]	13	13	20	13	7	20	20	5	3	–	–	0	–	–
COC(=O)c1ccccc1N [Methyl anthranilate, methyl anthranilate]	10	13	13	17	20	–	–	–	8	20	20	10	–	–
COC(=O)c1ccccc1 [Methyl benzoate, methyl benzoate]	7	23	27	33	36	–	–	25	8	36	46	–	–	–
COC(=O)c1cccc(N)c1 [Methyl m-aminobenzoate, methyl m-aminobenzoate]	3	10	27	33	40	–	–	–	8	40	40	0	–	–
COC(=O)c1ccccc1C [Methyl o-toluate, methyl o-toluate]	3	13	17	20	23	–	–	15	3	23	23	–	–	–
CC(C)=CCC/C(C)=C\CO [Nerol, nerol]	10	33	33	30	27	33	33	5	3	–	–	–	–	–
CC(=O)c1ccccc1N [o-aminoacetophenone]	3	17	23	30	36	–	–	38	13	36	36	–	–	–
COc1ccccc1N [o-anisidine]	6	10	20	30	40	–	–	15	8	40	40	0	–	–
COc1ccc(C=O)cc1 [p-anisaldehyde]	17	23	23	30	36	–	–	–	3	36	36	10	–	–
CCCCCCC(C=O)=Cc1ccccc1 [α-hexylcinnamaldehyde]	13	27	33	30	30	33	33	–	8	–	–	7	–	–
